Where “and” joins values, the source holds several entries; their conditions need not be identical. Equal values may be shown once. Toxic doses and inconclusive results are not listed.
System: L1210 leukemia ip in BDF1 mice, survival T/C
Assay: NCI In Vivo Anticancer Drug Screen. Data for tumor model L1210 Leukemia (intraperitoneal) in B6D2F1 (BDF1) mice
Details: endpoint: mean survival time, higher = longer survival
Method in brief: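 Survival endpoint. Drug-treated group vs vehicle group, expressed as T divided by C. Tumor passaged by transplantation.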

[1] = dose: 50.0 mg/kg/injection, schedule: Q01DX001 (ip), vehicle: saline
[2] = dose: 100.0 mg/kg/injection, schedule: Q01DX001 (ip), vehicle: saline
[3] = dose: 200.0 mg/kg/injection, schedule: Q01DX001 (ip), vehicle: saline
[4] = dose: 400.0 mg/kg/injection, schedule: Q01DX001 (ip), vehicle: saline
[5] = dose: 50.0 mg/kg/injection, schedule: Q01DX009 (ip), vehicle: Klucel (hydroxypropylcellulose) (HPC)
[6] = dose: 100.0 mg/kg/injection, schedule: Q01DX009 (ip), vehicle: Klucel (hydroxypropylcellulose) (HPC)
[7] = dose: 200.0 mg/kg/injection, schedule: Q01DX009 (ip), vehicle: Klucel (hydroxypropylcellulose) (HPC)
[8] = dose: 100.0 mg/kg/injection, schedule: Q04DX002 (ip), vehicle: saline with Tween-80
[9] = dose: 200.0 mg/kg/injection, schedule: Q04DX002 (ip), vehicle: saline with Tween-80
[10] = dose: 200.0 mg/kg/injection, schedule: Q04DX003 (ip), vehicle: Klucel (hydroxypropylcellulose) (HPC)
[11] = dose: 400.0 mg/kg/injection, schedule: Q01DX009 (ip), vehicle: Klucel (hydroxypropylcellulose) (HPC)
[12] = dose: 400.0 mg/kg/injection, schedule: Q04DX002 (ip), vehicle: saline with Tween-80
[13] = dose: 50.0 mg/kg/injection, schedule: Q04DX003 (ip), vehicle: saline

With `C1=C\CCCC/C=C/CC/1` the T/C [1] was 103 % of control, the T/C [2] was 92 % of control and the T/C [3] was 101 % of control. For the same compound, the T/C [4] was 90 % of control.
For `O=C(O)CCC(=O)c1ccc(Br)cc1`, the T/C [5] was 100 % of control, the T/C [6] was 95 % of control and the T/C [7] was 101 % of control.
`C/C=C\C(=O)OCC(C)CCC` (stereo not drawn) was tested, and the T/C [8] was 97 % of control and the T/C [9] was 102 % of control.
For `COc1ccc2c(c1)C=Cc1ccc(Cl)cc1N2`, the T/C [6] was 97 % of control, the T/C (dose: 100.0 mg/kg/injection, schedule: Q04DX003 (ip), vehicle: Klucel (hydroxypropylcellulose) (HPC)) was 98 % of control and the T/C [7] was 94 % of control. The T/C [10] was 101 % of control, the T/C [11] was 94 % of control and the T/C (dose: 400.0 mg/kg/injection, schedule: Q04DX003 (ip), vehicle: Klucel (hydroxypropylcellulose) (HPC)) was 104 % of control.
With `CN1CCN(C(c2ccccc2)c2ccccc2)CC1` the T/C (dose: 3.12 mg/kg/injection, schedule: Q01DX009 (ip), vehicle: Klucel (hydroxypropylcellulose) (HPC)) was 97 % of control, the T/C (dose: 6.25 mg/kg/injection, schedule: Q01DX009 (ip), vehicle: Klucel (hydroxypropylcellulose) (HPC)) was 102 % of control and the T/C (dose: 12.5 mg/kg/injection, schedule: Q01DX009 (ip), vehicle: Klucel (hydroxypropylcellulose) (HPC)) was 97 % of control. For the same compound, the T/C (dose: 25.0 mg/kg/injection, schedule: Q01DX009 (ip), vehicle: Klucel (hydroxypropylcellulose) (HPC)) was 108 % of control, the T/C (dose: 25.0 mg/kg/injection, schedule: Q04DX003 (ip), vehicle: Klucel (hydroxypropylcellulose) (HPC)) was 97 % of control and the T/C [5] was 103 % of control. The T/C (dose: 50.0 mg/kg/injection, schedule: Q04DX003 (ip), vehicle: Klucel (hydroxypropylcellulose) (HPC)) was 92 % of control.
In the case of `OB(Cc1ccccc1)c1ccccc1`, the T/C [2] is reported as 97 % of control, the T/C [3] is reported as 89 % of control and the T/C [4] is reported as 97 % of control.
In the case of `CCc1nc2nnnn2c(CC)c1-c1ccccc1O`, the T/C [8] is reported as 98 % of control, the T/C [9] is reported as 104 % of control and the T/C [12] is reported as 88 % of control.
`NC(CC(=O)N/C=N\O)C(=O)O` (stereo not drawn) was tested, and the T/C [1] was 98 % of control, the T/C [2] was 102 % of control and the T/C [3] was 104 % of control. For the same compound, the T/C [4] was 104 % of control.
With `O=[N+]([O-])c1cc(Br)ccc1N1CCCC1` the T/C (dose: 100.0 mg/kg/injection, schedule: Q04DX003 (ip), vehicle: saline) was 88 % of control, the T/C (dose: 200.0 mg/kg/injection, schedule: Q04DX003 (ip), vehicle: saline) was 101 % of control and the T/C (dose: 400.0 mg/kg/injection, schedule: Q04DX003 (ip), vehicle: saline) was 93 % of control.
For `CCc1ccc(NC(=O)CCC(=O)O)cc1`, the T/C [6] was 102 % of control, the T/C [7] was 93 % of control and the T/C [11] was 90 % of control.
With `C[n+]1cc2c3ccccc3c(N)cc2c2ccccc21` the T/C (dose: 6.25 mg/kg/injection, schedule: Q01DX009 (ip), vehicle: water) was 114 % of control, the T/C (dose: 12.5 mg/kg/injection, schedule: Q01DX009 (ip), vehicle: water) was 118 % of control and the T/C (dose: 25.0 mg/kg/injection, schedule: Q01DX009 (ip), vehicle: water) was 117 % of control. For the same compound, the T/C (dose: 25.0 mg/kg/injection, schedule: Q04DX003 (ip), vehicle: water) was 118 % of control, the T/C (dose: 50.0 mg/kg/injection, schedule: Q01DX009 (ip), vehicle: water) was 90 % of control and the T/C (dose: 50.0 mg/kg/injection, schedule: Q04DX003 (ip), vehicle: water) was 98 % of control. The T/C (dose: 100.0 mg/kg/injection, schedule: Q04DX003 (ip), vehicle: water) was 93 % of control and 107 % of control.
For `O=C(O)c1cccnn1`, the T/C [2] was 104 % of control and the T/C [3] was 97 % of control.
With `CCCCOC1CC2c3ccccc3C1c1cccc[n+]12` (stereo not drawn) the T/C (dose: 12.5 mg/kg/injection, schedule: Q01DX009 (ip), vehicle: saline) was 111 % of control and 102 % of control, the T/C (dose: 12.5 mg/kg/injection, schedule: Q04DX003 (ip), vehicle: saline) was 94 % of control and 101 % of control and 100 % of control and the T/C (dose: 25.0 mg/kg/injection, schedule: Q01DX009 (ip), vehicle: saline) was 104 % of control and 98 % of control. For the same compound, the T/C (dose: 25.0 mg/kg/injection, schedule: Q04DX003 (ip), vehicle: saline) was 100 % of control and 101 % of control and the T/C [13] was 94 % of control and 88 % of control and 103 % of control.
With `O=C(CCl)NP(=O)(O)OCc1ccccc1` the T/C (dose: 25.0 mg/kg/injection, schedule: Q04DX002 (ip), vehicle: saline) was 102 % of control, the T/C (dose: 50.0 mg/kg/injection, schedule: Q04DX002 (ip), vehicle: saline) was 94 % of control and the T/C (dose: 100.0 mg/kg/injection, schedule: Q04DX002 (ip), vehicle: saline) was 91 % of control.
In the case of `CCSc1nc(Cl)cc(Sc2nc(N)nc3nc[nH]c23)n1`, the T/C (dose: 10.0 mg/kg/injection, schedule: Q01DX009 (ip), vehicle: saline) is reported as 104 % of control, the T/C (dose: 12.0 mg/kg/injection, schedule: Q01DX001 (ip), vehicle: saline) is reported as 100 % of control and the T/C (dose: 15.0 mg/kg/injection, schedule: Q04DX003 (ip), vehicle: saline) is reported as 116 % of control. The T/C (dose: 19.0 mg/kg/injection, schedule: Q01DX001 (ip), vehicle: saline) was 119 % of control, the T/C (dose: 20.0 mg/kg/injection, schedule: Q01DX009 (ip), vehicle: saline) was 115 % of control and the T/C (dose: 30.0 mg/kg/injection, schedule: Q04DX003 (ip), vehicle: saline) was 122 % of control. For the same compound, the T/C (dose: 45.0 mg/kg/injection, schedule: Q01DX001 (ip), vehicle: saline) was 123 % of control, the T/C [13] was 118 % of control and the T/C (dose: 66.0 mg/kg/injection, schedule: Q01DX001 (ip), vehicle: saline) was 114 % of control and 123 % of control. The T/C (dose: 100.0 mg/kg/injection, schedule: Q01DX009 (ip), vehicle: saline) was 156 % of control, the T/C (dose: 100.0 mg/kg/injection, schedule: Q01DX Z (ip), vehicle: methylcellulose (MC)) was 115 % of control and the T/C (dose: 120.0 mg/kg/injection, schedule: Q04DX003 (ip), vehicle: saline) was 151 % of control. The T/C (dose: 132.0 mg/kg/injection, schedule: Q04DX003 (ip), vehicle: saline with Tween-80) was 175 % of control, the T/C [3] was 100 % of control and the T/C (dose: 200.0 mg/kg/injection, schedule: Q01DX Z (ip), vehicle: methylcellulose (MC)) was 122 % of control. The T/C [10] was 158 % of control, the T/C (dose: 200.0 mg/kg/injection, schedule: Q04DX003 (ip), vehicle: saline with Tween-80) was 200 % of control and the T/C (dose: 240.0 mg/kg/injection, schedule: Q01DX001 (ip), vehicle: saline) was 193 % of control. The T/C (dose: 240.0 mg/kg/injection, schedule: Q04DX003 (ip), vehicle: saline) was 204 % of control, the T/C (dose: 300.0 mg/kg/injection, schedule: Q04DX003 (ip), vehicle: Klucel (hydroxypropylcellulose) (HPC)) was 168 % of control and the T/C (dose: 300.0 mg/kg/injection, schedule: Q04DX003 (ip), vehicle: saline with Tween-80) was 180 % of control. The T/C (dose: 360.0 mg/kg/injection, schedule: Q01DX001 (ip), vehicle: saline) was 205 % of control, the T/C (dose: 360.0 mg/kg/injection, schedule: Q04DX003 (ip), vehicle: saline) was 188 % of control and the T/C (dose: 400.0 mg/kg/injection, schedule: Q01DX009 (ip), vehicle: saline) was 108 % of control. For the same compound, the T/C (dose: 400.0 mg/kg/injection, schedule: Q01DX Z (ip), vehicle: carboxymethylcellulose (CMC)) was 102 % of control, the T/C (dose: 600.0 mg/kg/injection, schedule: Q01DX009 (ip), vehicle: saline) was 121 % of control and the T/C (dose: 800.0 mg/kg/injection, schedule: Q01DX Z (ip), vehicle: carboxymethylcellulose (CMC)) was 90 % of control. The T/C (dose: 810.0 mg/kg/injection, schedule: Q01DX001 (ip), vehicle: saline) was 124 % of control and the T/C (dose: 810.0 mg/kg/injection, schedule: Q04DX003 (ip), vehicle: saline) was 119 % of control.
In the case of `CN1CC(C)(C)C(=O)c2ccccc21`, the T/C (dose: 100.0 mg/kg/injection, schedule: Q04DX002 (ip), vehicle: other) is reported as 95 % of control, the T/C (dose: 200.0 mg/kg/injection, schedule: Q04DX002 (ip), vehicle: other) is reported as 103 % of control and the T/C (dose: 400.0 mg/kg/injection, schedule: Q04DX002 (ip), vehicle: other) is reported as 103 % of control.
`O=C(Nc1ccc(Cl)cc1)Nc1cccc2nsnc12` was tested, and the T/C [8] was 97 % of control, the T/C [9] was 93 % of control and the T/C [12] was 90 % of control.
With `CCC(=O)OC(OC(=O)CC)c1cccc2ccccc12` the T/C (dose: 222.0 mg/kg/injection, schedule: Q01DX Z (ip), vehicle: saline) was 90 % of control, the T/C (dose: 333.0 mg/kg/injection, schedule: Q01DX Z (ip), vehicle: saline) was 86 % of control and the T/C (dose: 500.0 mg/kg/injection, schedule: Q01DX Z (ip), vehicle: saline) was 95 % of control.
